This is an account of results in article PMC10674233, “Design, Synthesis, In Vitro, and In Silico Studies of New N^5-Substituted-pyrazolo[3,4-d]pyrimidinone Derivatives as Anticancer CDK2 Inhibitors” (Pharmaceuticals, 2023).

The structures appear in SMILES notation.

In general, IC50 refers to the concentration needed to halve the response being measured. Broadly, the melting point is the temperature of the solid-liquid transition.

One data set concerns HCT116 cells. In words: MTT antiproliferative assay, HCT116 cells. Format: cell-based. The settings on record: Homo sapiens, HCT-116, HCT116 CRC cell line, triplicate, read-out: IC50 ± SD HCT116. In general terms: Formazan colour is commonly taken as a measure of viable cells.
The subject of a further data set is HepG2 cells. In words: MTT antiproliferative assay, HepG2 cells. Format: cell-based. The settings on record: Homo sapiens, HepG2 HCC cell line, triplicate, read-out: IC50 ± SD HepG2.
Data set [1] concerns normal human fibroblast cell line (WI-38). In words: MTT cytotoxicity assay, normal human fibroblast cell line WI-38. Format: cell-based. The note with it: WI-38 normal human fibroblasts, read-out: IC50 ± SD WI-38.
Another data set has as its target T1, CDK2/CyclinA2 (Homo sapiens, UniProt P24941).
T1 construct: purchased BPS Bioscience Inc. (San Diego, CA, USA)
In words: In vitro enzymatic CDK2 inhibition assay (Kinase-Glo luminescence kit). The note with it: triplicate; read-out: CDK2 Inhibition IC50 ± SD. The format is biochemical. As for the experimental part: . […]. In vitro evaluation of CDK2 inhibition was determined using a commercially available assay kit from BPS Bioscience Inc. (San Diego, CA, USA) as described in the Supplementary Information. […]
serum. After that, the reconstituted MTT was added in an amount equal to 10% of the culture medium volume. Cultures were returned to incubator for 2-4 hours depending on cell type and maximum cell density. Incubation times should be consistent when making comparisons. After the incubation period, cultures were removed from incubator and the resulting formazan crystals were dissolved by adding an amount of MTT Solubilization Soluti on [M-8910] equal to the original culture medium volume. Occasionally, especially in dense cultures, pipetting up and down [trituration] may be required to completely dissolve the MTT formazan crystals.
Absorbance was measured spectrophotometrically at a wavelength of 570 nm. The background absorbance of multiwell plates was measured at 690 nm and subtract from the 570 nm […]
2.2. CDK2/Cyclin A2 inhibitory activity
Promega Kinase-Glo Plus luminescence kinase assay protocol was adopted as reported. […]
reaction by adding 20 μl of diluted CDK2/CyclinA2 enzyme to the wells designated “Positive Control” and "Test Inhibitor Control". […] Measure luminescence using the microplate reader. “Blank” value is subtracted from all readings. […]

On to `COC(=O)Cn1c(C)nc2c(cnn2-c2ccccc2)c1=O` [Compound 2a], for which the IC50 in the data set with HCT116 cells was determined as 19.4 ± 0.86 µM; with HepG2 cells it was 32.9 ± 1.67 µM.
The matching figures for `CCOC(=O)Cn1c(C)nc2c(cnn2-c2ccccc2)c1=O` [Compound 2b]: 10.9 ± 0.48 µM and 58 ± 2.94 µM.
The corresponding values for `Cc1nc2c(cnn2-c2ccccc2)c(=O)n1CC(=O)c1ccc(Cl)cc1` [Compound 3a] are 35.9 ± 1.59 µM and 26.2 ± 1.33 µM.
The matching figures for `Cc1ccc(C(=O)Cn2c(C)nc3c(cnn3-c3ccccc3)c2=O)cc1` [Compound 3b]: 10.8 ± 0.48 µM and 1.9 ± 0.1 µM.
As to `Cc1nc2c(cnn2-c2ccccc2)c(=O)n1CC(=O)Nc1ccc(F)cc1` [Compound 4a], the IC50 with HCT116 cells stood at 1.09 ± 0.05 µM; with HepG2 cells, 0.58 ± 0.03 µM; in data set [1] it was 58.6 µM; on CDK2/CyclinA2, 0.21 ± 0.01 µM.
The matching figures for `Cc1nc2c(cnn2-c2ccccc2)c(=O)n1CC(=O)Nc1ccc(Cl)cc1` [Compound 4b]: 3.38 ± 0.15 µM, 2.57 ± 0.13 µM, 48.5 µM and 0.96 ± 0.05 µM.
Compound `COc1cccc(NC(=O)Cn2c(C)nc3c(cnn3-c3ccccc3)c2=O)c1` [Compound 4c] returned a melting point of 220 to 225 °C. Further, the IC50 with HCT116 cells came to 26.4 ± 1.17 µM. Further, the IC50 in the data set on HepG2 cells was 87.3 ± 4.42 µM.
For `Cc1nc2c(cnn2-c2ccccc2)c(=O)n1CC(=O)Nc1cccc2ccccc12` [Compound 4e], the IC50 with HCT116 cells came to 41.2 ± 1.83 µM; in the data set with HepG2 cells, 16.1 ± 0.81 µM.
